{"source": "ChEMBL document CHEMBL3994662", "about": "“In vivo instability of platensimycin and platencin: Synthesis and biological evaluation of urea- and carbamate-platensimycin” (Bioorg Med Chem, 2017)", "key": {"[1]": {"test": "Drug level in mouse hepatic microsomes treated with platensimycin at 1 uM up to 60 mins in presence of NADPH by LC-MS/MS analysis", "assay_type": "ADME, Liver, Microsome", "settings": "1 h; call rule not given here"}, "[2]": {"test": "Drug level in mouse hepatic microsomes treated with platensimycin at 1 uM up to 60 mins in absence of NADPH by LC-MS/MS analysis", "assay_type": "ADME, Liver, Microsome", "settings": "1 h"}, "[3]": {"test": "Drug level in C57Bl/6 mouse urine assessed as platensimycin level at 10 mg/kg, iv administered as single dose measured after 60 mins by LC-MS/MS analysis", "assay_type": "ADME, organism-based", "settings": "in vivo, 1 h"}, "[4]": {"test": "Elimination half life in C57Bl/6 mouse at 10 mg/kg, iv administered as single dose by LC-MS/MS analysis", "assay_type": "ADME, organism-based", "settings": "in vivo, read-out: beta t1/2 (converted)"}, "Mus musculus [5]": {"system": "Mus musculus", "test": "Volume of distribution in C57Bl/6 mouse assessed as platensimycin level at 10 mg/kg, iv administered as single dose by LC-MS/MS analysis", "assay_type": "ADME, organism-based", "settings": "in vivo"}, "Plasma [6]": {"system": "Plasma", "test": "Drug metabolism in C57Bl/6 mouse plasma assessed as platensimycin formation at 10 mg/kg, iv administered as single dose measured after 60 mins by LC-MS/MS analysis", "assay_type": "ADME, organism-based", "settings": "in vivo, 1 h"}, "Plasma [7]": {"system": "Plasma", "test": "Drug uptake in C57Bl/6 mouse plasma at 10 mg/kg, iv administered as single dose measured after 60 mins by LC-MS/MS analysis", "assay_type": "ADME, organism-based", "settings": "in vivo, 1 h"}, "[8]": {"test": "Volume of distribution in C57Bl/6 mouse at 10 mg/kg, iv administered as single dose by LC-MS/MS analysis", "assay_type": "ADME, organism-based", "settings": "in vivo"}, "[9]": {"test": "Ratio of drug level in C57Bl/6 mouse kidney to plasma at 10 mg/kg, iv administered as single dose measured after 60 mins by LC-MS/MS analysis", "assay_type": "ADME, organism-based"}, "[10]": {"test": "Observed clearance in C57Bl/6 mouse at 10 mg/kg, iv administered as single dose by LC-MS/MS analysis", "assay_type": "ADME, organism-based", "settings": "in vivo"}, "Mus musculus [11]": {"system": "Mus musculus", "test": "AUC (0 to 8 hrs) in C57Bl/6 mouse at 10 mg/kg, iv administered as single dose by LC-MS/MS analysis", "assay_type": "ADME, organism-based", "parameters": "dose 10 mg/kg, time < 8 hr, route intravenous", "settings": "in vivo"}, "[12]": {"test": "Ratio of drug level in C57Bl/6 mouse liver to plasma at 10 mg/kg, iv administered as single dose measured after 60 mins by LC-MS/MS analysis", "assay_type": "ADME, organism-based"}, "Mus musculus [13]": {"system": "Mus musculus", "test": "AUC (0 to 8 hrs) in C57Bl/6 mouse assessed as platensimycin level at 10 mg/kg, iv administered as single dose by LC-MS/MS analysis", "assay_type": "ADME, organism-based", "parameters": "dose 10 mg/kg, time < 8 hr, route intravenous", "settings": "in vivo"}, "Mus musculus [14]": {"system": "Mus musculus", "test": "Elimination half life in C57Bl/6 mouse assessed as platensimycin level at 10 mg/kg, iv administered as single dose by LC-MS/MS analysis", "assay_type": "ADME, organism-based", "settings": "in vivo"}, "[15]": {"test": "Drug level in C57Bl/6 mouse urine at 10 mg/kg, iv administered as single dose measured after 60 mins by LC-MS/MS analysis", "assay_type": "ADME, organism-based", "settings": "C57Bl/6, mouse, urine, read-out: Drug uptake"}, "Mus musculus [16]": {"system": "Mus musculus", "test": "Cmax in C57Bl/6 mouse assessed as platensimycin level at 10 mg/kg, iv administered as single dose by LC-MS/MS analysis", "assay_type": "ADME, organism-based", "parameters": "dose 10 mg/kg, route intravenous", "settings": "in vivo"}, "[17]": {"test": "Cmax in C57Bl/6 mouse at 10 mg/kg, iv administered as single dose by LC-MS/MS analysis", "assay_type": "ADME, organism-based", "parameters": "dose 10 mg/kg, route intravenous", "settings": "in vivo"}, "Staphylococcus aureus": {"system": "Staphylococcus aureus", "test": "Antibacterial activity against Staphylococcus aureus ATCC 25923 after 18 hrs by broth dilution method", "assay_type": "functional", "settings": "ATCC 25923, 18 h"}, "Micrococcus luteus": {"system": "Micrococcus luteus", "test": "Antibacterial activity against Micrococcus luteus ATCC 9431 after 18 hrs by broth dilution method", "assay_type": "functional", "settings": "ATCC 9431, 18 h"}}}
{"smiles": "C[C@]12C[C@@]34C=CC(=O)[C@@](C)(CCC(=O)O)[C@@H]3[C@H](C[C@@H]1C4)O2", "values": [{"measurement": "Drug metabolism", "setting": "[1]", "value": "Metabolite_Detected"}, {"measurement": "Drug metabolism", "setting": "[2]", "value": "Metabolite_Detected"}]}
{"smiles": "C[C@]12C[C@@]34C=CC(=O)[C@@](C)(CCC(=O)Nc5c(O)ccc(C(=O)S[C@H]6CC(=O)[C@@](C)(CCC(=O)Nc7c(O)ccc(C(=O)O)c7O)[C@@H]7[C@@H]8C[C@@H]9C[C@]67C[C@]9(C)O8)c5O)[C@@H]3[C@H](C[C@@H]1C4)O2", "values": [{"measurement": "Drug uptake", "setting": "[3]", "value": "< 1", "unit": "%"}, {"measurement": "half-life", "setting": "[4]", "value": 1.1, "unit": "h"}, {"measurement": "Vd", "setting": "Mus musculus [5]", "value": 2.5, "unit": "L/kg"}, {"measurement": "Drug metabolism", "setting": "Plasma [6]", "value": "Metabolite_Detected"}, {"measurement": "Drug uptake", "setting": "Plasma [7]", "value": "Active"}, {"measurement": "Vd", "setting": "[8]", "value": 0.33, "unit": "L/kg"}, {"measurement": "Kp at 1 h", "setting": "[9]", "value": 0.2}, {"measurement": "clearance", "setting": "[10]", "value": 11, "unit": "mL/min/kg"}, {"measurement": "AUC", "setting": "Mus musculus [11]", "value": 18, "unit": "µM·h"}, {"measurement": "Kp at 1 h", "setting": "[12]", "value": 0.6}, {"measurement": "AUC", "setting": "Mus musculus [13]", "value": 6.3, "unit": "µM·h"}, {"measurement": "beta t1/2", "setting": "Mus musculus [14]", "value": 1.9, "unit": "h"}, {"measurement": "dose excreted at 1 h", "setting": "[15]", "value": "< 1", "unit": "%"}, {"measurement": "Cmax", "setting": "Mus musculus [16]", "value": 15, "unit": "µM"}, {"measurement": "Cmax", "setting": "[17]", "value": 38, "unit": "µM"}]}
{"smiles": "COC(=O)c1ccc(O)c(NC(=O)NCC[C@]2(C)C(=O)C=C[C@]34C[C@H]5C[C@H](O[C@@]5(C)C3)[C@H]42)c1O", "values": [{"measurement": "MIC", "setting": "Staphylococcus aureus", "value": "> 64", "unit": "µg/mL"}, {"measurement": "MIC", "setting": "Micrococcus luteus", "value": 64, "unit": "µg/mL"}]}
